Test results: patent publication US10189843B2, “Fused pyrazole derivative having autotaxin inhibitory activity” (The University of Tokyo, priority 2014, dated 2019)

Molecular target: T1, Human autotaxin enzyme (Homo sapiens, UniProt Q13822)
T1 construct: purchased R&D System
Assay: Evaluation of autotaxin inhibitor, Method C (18:0 Lyso PC substrate, choline assay, Resorufin fluorescence)
Format: biochemical
Conditions: Method C (Test Example 3), read-out: Inhibitory activity (enzyme inhibitory activity, IC50)
Method in brief: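 Recombinant human autotaxin with compound and 200 μM 18:0 Lyso PC (stock) in Tris-HCl pH 7.5, NaCl, MgCl2, Triton X-100, 2 h RT. Released choline detected via choline oxidase/peroxidase/Amplex-type reagent, 20 min, resorufin fluorescence 531/598 nm; % inhibition vs no-compound and no-enzyme controls, concentration-response curve.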

Compound | IC50
CCCCCC1CN(CC(=O)O)C(=O)c2cc(-c3ccc(Cl)cc3)nn21 (stereo not shown) [Compound I-0003] | ≥ 1000 nM
C[C@H]1CN(Cc2ccc(O)cc2)C(=O)c2cc(-c3ccc(Cl)cc3)nn21 [Compound I-0171] | ≥ 1000 nM
O=C(O)C1CCN(C(=O)CN2C(=O)c3cc(-c4ccc(Cl)cc4)nn3C3COCC32)CC1 (stereo not shown) [Compound I-0028] | ≥ 1000 nM
C[C@H]1CN(Cc2ccc(C#N)cc2)C(=O)c2cc(-c3ccc(Cl)cc3CC#N)nn21 [Compound I-0300] | ≥ 1000 nM
CCOC(=O)C1CCN(C(=O)CN2CC(C)(C)n3nc(-c4ccc(Cl)cc4)cc3C2=O)CC1 [Compound I-0015] | ≥ 1000 nM
CCCCC1CN(CC(=O)NC(C#N)C#N)C(=O)c2cc(-c3ccc(Cl)cc3)nn21 (stereo not shown) [Compound I-0231] | ≥ 1000 nM
CCCCCC1CN(CC(=O)NCCN(C)C)C(=O)c2cc(-c3ccc(Cl)cc3)nn21 (stereo not shown) [Compound I-0103] | ≥ 1000 nM
CCCCC1CN(Cc2ccc(C#N)cc2)C(=O)c2cc(N3CCC(C#N)CC3)nn21 (stereo not shown) [Compound I-0304] | ≥ 1000 nM
CCCCCC1CN(CC(=O)N2CCCCC2CCN2CCOCC2)C(=O)c2cc(-c3ccc(Cl)cc3)nn21 (stereo not shown) [Compound I-0109] | ≥ 1000 nM
CCCCCC1CN(Cc2ccccc2C#N)C(=O)c2cc(-c3ccc(Cl)cc3)nn21 (stereo not shown) [Compound I-0129] | ≥ 1000 nM
CCCCCC1CN(CC(=O)OCC2CCCCN2)C(=O)c2cc(-c3ccc(Cl)cc3)nn21 (stereo not shown) [Compound I-0114] | ≥ 1000 nM
CCCCCC1CN(Cc2ccc(NC(C)=O)cc2)C(=O)c2cc(-c3ccc(Cl)cc3)nn21 (stereo not shown) [Compound I-0133] | ≥ 1000 nM
CCCCC1CN(c2ccc(CC(=O)O)cc2)C(=O)c2cc(-c3ccc(Cl)cc3)nn21 (stereo not shown) [Compound I-0286] | ≥ 1000 nM
CCCCCC1CN(c2ccc(C(=O)N(C)C)cc2)C(=O)c2cc(-c3ccc(Cl)cc3)nn21 (stereo not shown) [Compound I-0310] | ≥ 1000 nM
CCCCCC1CN(Cc2cc(C)cc(C(=O)OC)c2)C(=O)c2cc(-c3ccc(Cl)cc3)nn21 (stereo not shown) [Compound I-0126] | ≥ 1000 nM
CCCCCC1CN(CC(=O)Nc2ccccn2)C(=O)c2cc(-c3ccc(Cl)cc3)nn21 (stereo not shown) [Compound I-0073] | ≥ 1000 nM
CCCCCC1CN(CC(=O)N2CCCC2Cc2ccccc2)C(=O)c2cc(-c3ccc(Cl)cc3)nn21 (stereo not shown) [Compound I-0072] | ≥ 1000 nM
CCCCCC1CN(Cc2ccccc2S(=O)(=O)N2CCOCC2)C(=O)c2cc(-c3ccc(Cl)cc3)nn21 (stereo not shown) [Compound I-0139] | ≥ 1000 nM
C[C@H]1CN(CC(=O)NCC(=O)O)C(=O)c2cc(-c3ccc(Cl)cc3)nn21 [Compound I-0162] | ≥ 1000 nM
O=C(O)C1CN(C(=O)CN2C(=O)c3cc(-c4ccc(Cl)cc4)nn3C3COCC32)C1 (stereo not shown) [Compound I-0029] | ≥ 1000 nM
CCCCC1CN(Cc2ccc(C#N)cc2)C(=O)c2cc(N3Cc4ccccc4C3)nn21 (stereo not shown) [Compound I-0306] | ≥ 1000 nM
CCCCCC1CN(CC(=O)N2CCC(N(C)C)C2)C(=O)c2cc(-c3ccc(Cl)cc3)nn21 (stereo not shown) [Compound I-0034] | ≥ 1000 nM
CCCCC1CN(c2ccc(CCC(=O)O)cc2)C(=O)c2cc(-c3ccc(Cl)cc3)nn21 (stereo not shown) [Compound I-0287] | ≥ 1000 nM
CCOC(=O)CN1CC(C(C)C)n2nc(-c3ccc(Cl)cc3)cc2C1=O (stereo not shown) [Compound I-0022] | ≥ 1000 nM
CCCCCC1CN(CC(=O)N2CCC(CO)CC2)C(=O)c2cc(-c3ccc(Cl)cc3)nn21 (stereo not shown) [Compound I-0096] | 100 to 1000 nM
C[C@H]1CN(Cc2ccc(C#N)cc2)C(=O)c2cc(-c3ccc(Cl)cc3C=O)nn21 [Compound I-0296] | 100 to 1000 nM
CCCCCC1CN(CNC(=O)OC(C)(C)C)C(=O)c2cc(-c3ccc(Cl)cc3)nn21 (stereo not shown) [Compound I-0005] | 100 to 1000 nM
CCCCCC1CN(CC(=O)N2CCCC2)C(=O)c2cc(-c3ccc(Cl)cc3)nn21 (stereo not shown) [Compound I-0097] | 100 to 1000 nM
CCOC(=O)CN1CC(C)(C)n2nc(-c3ccc(Cl)cc3)cc2C1=O [Compound I-0014] | ≥ 1000 nM
CCCCCC1CN(CC(=O)N(C)CC)C(=O)c2cc(-c3ccc(Cl)cc3)nn21 (stereo not shown) [Compound I-0077] | 100 to 1000 nM

Results, then the compound that gave them:

IC50 | Compound
10 to 100 nM | CCCOCC1CN(CC(=O)NCC(C)(C)O)C(=O)c2cc(-c3ccc(Cl)cc3)nn21 (stereo not shown) [Compound I-0252]
100 to 1000 nM | CCCCC1CN(CC(=O)N2CCO[C@H](C)C2)C(=O)c2cc(-c3ccc(Cl)cc3)nn21 (stereo partly shown) [Compound I-0240]
100 to 1000 nM | CCCCC1CN(Cc2ccc(C#N)cc2)C(=O)c2cc(-c3ccc(S(F)(F)(F)(F)F)cc3)nn21 (stereo not shown) [Compound I-0372]
100 to 1000 nM | CCCCC1CN(CC(=O)NCCOCCO)C(=O)c2cc(-c3ccc(Cl)cc3)nn21 (stereo not shown) [Compound I-0212]
100 to 1000 nM | CCCCCC1CN(CC(=O)N2CCC(C(N)=O)C2)C(=O)c2cc(-c3ccc(Cl)cc3)nn21 (stereo not shown) [Compound I-0112]
100 to 1000 nM | CCCCC1CN(Cc2ccc(C#N)cc2)C(=O)c2cc(-c3ccc(Cl)cc3NC(=O)NC)nn21 (stereo not shown) [Compound I-0309]
100 to 1000 nM | CCCCC1CN(CC(=O)NCCC(N)=O)C(=O)c2cc(-c3ccc(Cl)cc3)nn21 (stereo not shown) [Compound I-0222]
< 10 nM | CCCCCC1CN(CC(=O)N[C@@H](C(=O)O)c2ccccc2)C(=O)c2cc(-c3ccc(Cl)cc3)nn21 (stereo partly shown) [Compound I-0064]
< 10 nM | CC(=O)Nc1cc(OC(F)(F)F)ccc1-c1cc2n(n1)[C@@H](C)CN(C[C@H]1CNC(=O)O1)C2=O [Compound I-0339]
100 to 1000 nM | CCCCCC1CN(CC(=O)N2CCCC[C@H]2C)C(=O)c2cc(-c3ccc(Cl)cc3)nn21 (stereo partly shown) [Compound I-0076]
100 to 1000 nM | O=C1NCC(COCC(F)(F)C(F)F)n2nc(-c3ccc(Cl)cc3)cc21 (stereo not shown) [Compound I-0196]
10 to 100 nM | CCCCC1CN(CC2CNC(=O)O2)C(=O)c2cc(-c3ccc(Cl)cc3)nn21 (stereo not shown) [Compound I-0266]
< 10 nM | CCCCC1CN(Cc2cccc(C(=O)O)c2)C(=O)c2cc(-c3ccc(Cl)cc3)nn21 (stereo not shown) [Compound I-0150]
10 to 100 nM | CCCCCC1CN(CC(=O)N2CCCC[C@@H]2C)C(=O)c2cc(-c3ccc(Cl)cc3)nn21 (stereo partly shown) [Compound I-0082]
100 to 1000 nM | C[C@H]1CN(Cc2ccc(C#N)cc2)C(=O)c2cc(-c3ccc(Cl)cc3C#N)nn21 [Compound I-0298]
100 to 1000 nM | CCCCCC1CN(CC(=O)N2CCCC(c3ccccc3)C2)C(=O)c2cc(-c3ccc(Cl)cc3)nn21 (stereo not shown) [Compound I-0106]
< 10 nM | O=C(O)C1CCN(C(=O)CN2CC(COCC(F)(F)F)n3nc(-c4ccc(Cl)cc4)cc3C2=O)CC1 (stereo not shown) [Compound I-0318]
10 to 100 nM | CCCCC1CN(CC(=O)N2CCC[C@@H]2C)C(=O)c2cc(-c3ccc(Cl)cc3)nn21 (stereo partly shown) [Compound I-0246]
10 to 100 nM | CCCCCC1CN(CC(=O)Nc2cccc(CC(=O)O)c2)C(=O)c2cc(-c3ccc(Cl)cc3)nn21 (stereo not shown) [Compound I-0056]
100 to 1000 nM | CCCCC1CN(CC(=O)N2CCC[C@@H](C)C2)C(=O)c2cc(-c3ccc(Cl)cc3)nn21 (stereo partly shown) [Compound I-0248]
100 to 1000 nM | CCCCCC1CN(CC(=O)N2CCCCCC2)C(=O)c2cc(-c3ccc(Cl)cc3)nn21 (stereo not shown) [Compound I-0098]
10 to 100 nM | CCCCC1CN(CC(=O)N(C)CCC#N)C(=O)c2cc(-c3ccc(Cl)cc3)nn21 (stereo not shown) [Compound I-0209]

IC50 | Compound
10 to 100 nM | CCCCC1CN(CC(=O)OCC)C(=O)c2cc(-c3ccc(Cl)cc3)nn21 (stereo not shown) [Compound I-0294]
10 to 100 nM | CCCCC1CN(CC(=O)C2CCCCC2)C(=O)c2cc(-c3ccc(Cl)cc3)nn21 (stereo not shown) [Compound I-0254]
100 to 1000 nM | CCCCCC1CN(CC(=O)NCc2ccccc2)C(=O)c2cc(-c3ccc(Cl)cc3)nn21 (stereo not shown) [Compound I-0099]
< 10 nM | CCCCCC1CN(CC(=O)N[C@H](C(=O)O)c2ccccc2)C(=O)c2cc(-c3ccc(Cl)cc3)nn21 (stereo partly shown) [Compound I-0069]
100 to 1000 nM | CCCCCC1CN(CC(=O)NCC)C(=O)c2cc(-c3ccc(Cl)cc3)nn21 (stereo not shown) [Compound I-0108]
100 to 1000 nM | CCCCC1CN(CNC(=O)CO)C(=O)c2cc(-c3ccc(Cl)cc3)nn21 (stereo not shown) [Compound I-0290]
100 to 1000 nM | CCCCCC1CN(CC(=O)N2CCC(C)CC2)C(=O)c2cc(-c3ccc(Cl)cc3)nn21 (stereo not shown) [Compound I-0093]
< 10 nM | N#Cc1ccc(CN2CC3CC/C=C/CC(=O)Nc4cc(Cl)ccc4-c4cc(n3n4)C2=O)cc1 (stereo not shown) [Compound I-0357]
100 to 1000 nM | CCCCC1CN(CC(=O)NCCCC#N)C(=O)c2cc(-c3ccc(Cl)cc3)nn21 (stereo not shown) [Compound I-0244]
100 to 1000 nM | C[C@H]1CN(Cc2cccc(CC(=O)O)c2)C(=O)c2cc(-c3ccc(Cl)cc3)nn21 [Compound I-0163]
< 10 nM | O=C(O)c1cccc(CN2CC(COCC(F)(F)F)n3nc(-c4ccc(Cl)cc4)cc3C2=O)c1 (stereo not shown) [Compound I-0311]
10 to 100 nM | CCCCC1CN(CC(=O)N2CCCC[C@@H]2C)C(=O)c2cc(-c3ccc(Cl)cc3)nn21 (stereo partly shown) [Compound I-0247]
100 to 1000 nM | CCCCC1CN(Cc2ccc(C#N)cc2)C(=O)c2cc(-c3ccc(OC)cc3)nn21 (stereo not shown) [Compound I-0205]
100 to 1000 nM | CCCCC1CN(Cc2ncco2)C(=O)c2cc(-c3ccc(Cl)cc3)nn21 (stereo not shown) [Compound I-0260]
100 to 1000 nM | CCCCC1CN(CC(=O)NCC(N)=O)C(=O)c2cc(-c3ccc(Cl)cc3)nn21 (stereo not shown) [Compound I-0215]
< 10 nM | C[C@H]1CN(CC(=O)N(C)CCC#N)C(=O)c2cc(-c3ccc(C#N)cc3NC(=O)C3CC3)nn21 [Compound I-0350]
100 to 1000 nM | CCCCCC1CN(CC(=O)Nc2ccccc2C(=O)O)C(=O)c2cc(-c3ccc(Cl)cc3)nn21 (stereo not shown) [Compound I-0042]
10 to 100 nM | CCCCCC1CN(CC(=O)N2CCC[C@H](C(=O)O)C2)C(=O)c2cc(-c3ccc(Cl)cc3)nn21 (stereo partly shown) [Compound I-0070]
10 to 100 nM | CCCCC1CN(Cc2ccc(C#N)cc2)C(=O)c2cc(-c3ccc(Cl)cc3NC(C)=O)nn21 (stereo not shown) [Compound I-0189]
10 to 100 nM | CCCCCC1CN(CC(=O)NCCCCC(=O)O)C(=O)c2cc(-c3ccc(Cl)cc3)nn21 (stereo not shown) [Compound I-0061]
10 to 100 nM | C[C@H]1CN(CC(=O)N(C)CC#N)C(=O)c2cc(-c3ccc(C#N)cc3NC(=O)C3CC3)nn21 [Compound I-0364]
